Source: ChEMBL document CHEMBL1148666, “Inhibition of protein tyrosine phosphatase 1B by diterpenoids isolated from Acanthopanax koreanum” (Bioorg Med Chem Lett, 2006)
pIC50: −log10 of the molar value.

Each compound was assayed against T1, Tyrosine-protein phosphatase non-receptor type 1 (Homo sapiens, UniProt P18031) (assay: Inhibition of human recombinant PTP1B).
T1 sequence (P18031 whole entry): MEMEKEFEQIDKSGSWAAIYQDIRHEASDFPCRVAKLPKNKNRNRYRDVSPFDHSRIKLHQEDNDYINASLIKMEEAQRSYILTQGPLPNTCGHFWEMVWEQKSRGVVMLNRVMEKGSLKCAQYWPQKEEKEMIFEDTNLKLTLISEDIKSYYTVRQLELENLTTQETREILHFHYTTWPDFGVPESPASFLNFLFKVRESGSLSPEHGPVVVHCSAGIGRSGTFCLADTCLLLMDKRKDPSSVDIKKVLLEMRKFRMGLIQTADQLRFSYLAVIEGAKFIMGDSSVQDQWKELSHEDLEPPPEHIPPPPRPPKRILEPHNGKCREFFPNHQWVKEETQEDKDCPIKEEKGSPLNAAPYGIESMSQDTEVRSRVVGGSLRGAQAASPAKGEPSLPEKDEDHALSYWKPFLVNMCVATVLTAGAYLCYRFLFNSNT

First: CC(C)CC(=O)OC[C@@]1(O)C[C@@]23CCC4[C@@](C)(CCC[C@@]4(C)C(=O)O)C2CC[C@@H]1C3 (some centres undefined)
Second: CC(C)CC(=O)OC[C@H]1C[C@@]23CCC4[C@@](C)(CCC[C@@]4(C)C(=O)O)C2CC[C@@H]1C3 (some centres undefined)
The pIC50 of the first is lower: under 4.52 for the first, 5.15 for the second.

Going from `C[C@@]12CCC[C@@](C)(C(=O)O)C1CC[C@@]13C[C@@H](CCC12)[C@](C)(O)C3` (some centres undefined) to `C=C1C[C@@]23CC[C@H]4[C@@](C)(CCC[C@@]4(C)C(=O)O)[C@@H]2CC[C@@H]1C3` [KAURENOIC ACID], the pIC50 rises from under 4.52 to 4.69. The second is the more potent here.

Going from `C=C[C@@]1(C)CC=C2C(CCC3[C@](C)(CO)CCC[C@@]23C)C1` (some centres undefined) [ACANTHOL] to `C=C[C@@]1(C)CC=C2C(CCC3[C@](C)(C(=O)O)CCC[C@@]23C)C1` (some centres undefined) [ACANTHOIC ACID], the pIC50 rises from under 4.52 to 4.63.

`C=C[C@]1(C)C=C2C(CC1)[C@]1(C)CCC[C@@](C)(C(=O)O)C1C[C@@H]2O` (some centres undefined) and `C=C[C@]1(C)CC[C@@]2(O)[C@@H](C1)C(=O)CC1[C@](C)(C(=O)O)CCC[C@]12C` (some centres undefined) [ACANTHOKOREOIC ACID A] cannot be ordered by pIC50: under 4.52 for the first, under 4.52 for the second.

For `CCCCCCCCCCCCCCCC(=O)C1=C(O)[C@@H](CO)OC1=O`, the pIC50 was 5.35.
